In ChEMBL document CHEMBL1201862, “PubChem BioAssay data set” (2004):
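Interpolation was linear, between the two tested concentrations surrounding the appropriate level; five concentrations were tested over 48 hours in 96-well plates. GI50 marks 50% less growth.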 Activity calls are given as the source filed them. No stated cut-off is given here; in the data, active = GI50 up to about 1.1 µM and inactive = higher.

Key:
Assay in all cases: NCI-60 cell line screen, 48 h
ACHN = system: ACHN
CAKI-1 = system: CAKI-1
HL-60 = system: HL-60
HOP-92 = system: HOP-92
LOX IMVI = system: LOX IMVI
M14 = system: M14
NCI-H226 = system: NCI-H226
RPMI-8226 = system: RPMI-8226
SF-268 = system: SF-268
SK-MEL-2 = system: SK-MEL-2
SK-OV-3 = system: SK-OV-3
SN12C = system: SN12C
SNB-75 = system: SNB-75
U-251 = system: U-251
UACC-257 = system: UACC-257
UO-31 = system: UO-31
HCC 2998 = system: HCC 2998
HCT-116 = system: HCT-116

Measured: GI50

O=C(Cn1ccnc1[N+](=O)[O-])NCc1ccc(F)cc1
inactive: ACHN > 100 µM | CAKI-1 > 100 µM | HL-60 > 100 µM | HOP-92 > 100 µM | LOX IMVI > 100 µM | M14 > 100 µM | NCI-H226 40.2 µM | RPMI-8226 > 100 µM | SF-268 > 100 µM | SK-MEL-2 > 100 µM | SK-OV-3 > 100 µM | SN12C > 100 µM | SNB-75 68.9 µM | U-251 > 100 µM | UACC-257 > 100 µM | UO-31 > 100 µM

C=C(CO)CC(/C=C(\C)CC/C=C(\C)CCl)OC(C)=O (stereo not given)
inactive: ACHN > 100 µM | HCC 2998 > 100 µM | HCT-116 > 100 µM | HL-60 > 100 µM | HOP-92 5.7 µM | LOX IMVI > 100 µM | M14 > 100 µM | NCI-H226 > 100 µM | RPMI-8226 > 100 µM | SF-268 > 100 µM | SK-MEL-2 > 100 µM | SK-OV-3 > 100 µM | SN12C > 100 µM | SNB-75 > 100 µM | U-251 > 100 µM | UO-31 > 100 µM

CCOP(=O)(OCC)C1CCCCOC1=O (stereo not given)
inactive: ACHN > 100 µM | CAKI-1 > 100 µM | HCC 2998 > 100 µM | HCT-116 > 100 µM | HL-60 > 100 µM | LOX IMVI 19.9 µM | M14 > 100 µM | RPMI-8226 > 100 µM | SF-268 > 100 µM | SK-MEL-2 > 100 µM | SK-OV-3 > 100 µM | SN12C 95.9 µM | SNB-75 > 100 µM | U-251 > 100 µM | UACC-257 > 100 µM | UO-31 > 100 µM

O=C(/C=C/c1ccc(Cl)c(Cl)c1)c1ccc(F)cc1
inactive: ACHN 17.8 µM | CAKI-1 18.5 µM | HCC 2998 16.6 µM | HCT-116 7.67 µM | HL-60 11.9 µM | HOP-92 32.2 µM | M14 16.9 µM | NCI-H226 33.1 µM | RPMI-8226 3.3 µM | SF-268 28.2 µM | SK-OV-3 29 µM | SN12C 22.5 µM | SNB-75 22.9 µM | U-251 13 µM | UACC-257 23.8 µM | UO-31 > 100 µM

CC1=C(C(=O)CC(=O)C(=O)Nc2ccccc2)Sc2ccccc2N1
inactive: ACHN > 100 µM | HCT-116 > 100 µM | HL-60 > 100 µM | HOP-92 2.84 µM | LOX IMVI > 100 µM | M14 > 100 µM | NCI-H226 > 100 µM | RPMI-8226 > 100 µM | SF-268 > 100 µM | SK-MEL-2 > 100 µM | SK-OV-3 > 100 µM | SN12C > 100 µM | U-251 > 100 µM | UACC-257 > 100 µM | UO-31 > 100 µM

Cc1cc(N(CCC#N)CCC#N)ccc1/C=C(/NC(=O)/C=C/c1ccccc1)C(N)=O
inactive: ACHN > 100 µM | CAKI-1 > 100 µM | HCC 2998 > 100 µM | HCT-116 > 100 µM | HL-60 > 100 µM | LOX IMVI 97.5 µM | M14 > 100 µM | NCI-H226 > 100 µM | RPMI-8226 > 100 µM | SF-268 > 100 µM | SK-MEL-2 > 100 µM | SK-OV-3 > 100 µM | SN12C > 100 µM | SNB-75 > 100 µM | U-251 > 100 µM | UACC-257 > 100 µM | UO-31 > 100 µM

Cc1nc2ccccc2c(=O)n1/N=C(\N=N\c1ccc(Cl)cc1)c1ccc(N(C)C)cc1
inactive: ACHN > 100 µM | CAKI-1 > 100 µM | HCT-116 46.1 µM | LOX IMVI > 100 µM | SF-268 32.7 µM | SK-OV-3 > 100 µM | SN12C 56.9 µM | U-251 > 10 µM | UO-31 21.8 µM
